Assay results from patent US7452862B2, “Conformationally-controlled biologically active macrocyclic small molecules as motilin antagonists or ghrelin agonists” (Tranzyme Pharma, Inc., priority 2003, dated 2008).

Key:
[1] = biological target: T1, human ghrelin receptor (hGHS-R1a) (Homo sapiens, UniProt Q92847); experiment: Competitive radioligand binding assay (ghrelin receptor), Method B2; details: read-out: Binding Affinity [Ki (μM)]
T1 construct: purchased PerkinElmer BioSignal RBHGHSM, lot#1887; host or cells: HEK-293 cells, stably transfected
T1 sequence (Q92847 whole entry): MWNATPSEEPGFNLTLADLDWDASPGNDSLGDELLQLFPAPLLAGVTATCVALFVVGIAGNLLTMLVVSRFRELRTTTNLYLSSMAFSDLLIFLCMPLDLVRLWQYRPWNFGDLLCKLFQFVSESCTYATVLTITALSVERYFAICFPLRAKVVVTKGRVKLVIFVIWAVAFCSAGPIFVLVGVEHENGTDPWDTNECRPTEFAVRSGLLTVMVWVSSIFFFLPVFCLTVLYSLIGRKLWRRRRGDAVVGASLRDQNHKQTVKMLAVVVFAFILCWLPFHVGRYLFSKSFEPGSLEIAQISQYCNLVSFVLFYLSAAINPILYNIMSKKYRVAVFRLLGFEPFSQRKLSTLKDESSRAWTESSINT
Experimental: (§1) The compounds of the present invention were evaluated for their ability to interact at the human motilin receptor and the human ghrelin receptor utilizing competitive redioligand binding assays as described in Method B1 and B2, respectively. Further characterization of the interaction can be performed utilizing the functional assays described in Methods B3 and B4 for the motilin and ghrelin receptors, respectively. All of these methods can be conducted, if so desired, in a high throughput manner to permit the simultaneous evaluation of many compounds.
Competitive Radioligand Binding Assay (Ghrelin Receptor)
The competitive binding assay at the human growth hormone secretagogue receptor (hGHS-R1a) was carried out analogously to assays described in the literature. (Bednarek M A et al. (2000), Structure-function studies on the new growth hormone-releasing peptide ghrelin: minimal sequence of ghrelin necessary for activation of growth hormone secretagogue receptor 1 a; J Med Chem 43:43704376. Palucki B L et al. (2001), Spiro(indoline-3,4′-piperidine) growth hormone secretagogues as ghrelin mimetics; Bioorg Med Chem Lett 11:1955-1957.)
• Membranes (GHS-R/HEK 293) were prepared from HEK-293 cells stably transfected with the human ghrelin receptor (hGHS-Rla). These membranes were provided by PerkinElmer BioSignal® (#RBHGHSM, lot#1887, PerkinlElmer, Wellesley, MA) and utilized at a quantity of 0.71 μg/assay point. • [^125I]-Ghrelin (PerkinElmer, #NEX-388); final concentration: 0.0070-0.0085 nM • Ghrelin(Bachem, #H-4864, Bachem Bioscience Inc., King of Prussia, PA); final concentration: 1 μM • Multiscreen® Harvest plates-GF/C (Millipore, #MAHFC1H60, Billerica, MA) • Deep-well polypropylene titer plate (Beckman Coulter, #267006, Fullerton, CA) • TopSeal-A™ (PerkinElmer, #6005185, Wellesley, MA) • Bottom seal (Millipore, #MATAH0P00) • MicroScint-0™ (PerkinElmer, #6013611, Wellesley, MA) • Binding Buffer: 25 mM Hepes (pH 7.4), 1 mM CaCl2, 5 mM MgCl2, 2.5 mM EDTA, 0.4% BSA Assay Volumes
Competition experiments were performed in a 300 μL filtration assay format. • 220 μL of membranes diluted in binding buffer • 40 μL of compound diluted in binding buffer • 40 μL of radioligand ([^125I]-Ghrelin) diluted in binding buffer
Final test concentrations (N=1) for compounds of the present invention: • 10, 1, 0.5, 0.2, 0.1, 0.05, 0.02, 0.01, 0.005, 0.002, 0.001 μM. Compound Handling
(§2) Compounds were provided frozen on dry ice at a stock concentration of 10 mM diluted in 100% DMSO and stored at −80° C. until the day of testing. On the test day, compounds were allowed to thaw at rt overnight and then diluted in assay buffer according to the desired test concentrations. Under these conditions, the maximal final DMSO concentration in the assay was 0.1%.
In deep-well plates, 220 μL of diluted cell membranes (final concentration: 0.71 μg/well) were combined with 40 μL of either binding buffer (total binding, N =5), 1 μM ghrelin (non-specific binding, N =3) or the appropriate concentration of test compound (N =2 for each test concentration). The reaction was initiated by addition of 40 μL of [^125I]-ghrelin (final conc. 0.0070-0.0085 nM) to each well. Plates were sealed with TopSeal-A™, vortexed gently and incubated at rt for 30 min. The reaction was arrested by filtering samples through Multiscreen® Harvest plates (pre-soaked in 0.5% polyethyleneimine) using a Tomtec®Harvester (Tomtec, Hamden, CT), washed 9 times with 500 μL of cold 50 mM Tris-HCl (pH 7.4, 4° C), and then plates were air-dried in a fumehood for 30 min. A bottom seal was applied to the plates prior to the addition of 25 μL of MicroScint-0™ to each well. Plates were than sealed with TopSeal-A™ and counted for 30 sec per well on a TopCount® Microplate Scintillation and Luminescence Counter (PerkinElmer, Wellesley, MA) using a count delay of 60 sec. Results were expressed as counts per minute (cpm). […]

human motilin receptor = biological target: T2, human motilin receptor (Homo sapiens, UniProt O43193); experiment: Competitive radioligand binding assay (motilin receptor), Method B1; details: read-out: Binding Affinity [Ki (μM)]
T2 construct: purchased PerkinElmer 6110544; host or cells: CHO cells, stably transfected
T2 sequence (O43193 whole entry): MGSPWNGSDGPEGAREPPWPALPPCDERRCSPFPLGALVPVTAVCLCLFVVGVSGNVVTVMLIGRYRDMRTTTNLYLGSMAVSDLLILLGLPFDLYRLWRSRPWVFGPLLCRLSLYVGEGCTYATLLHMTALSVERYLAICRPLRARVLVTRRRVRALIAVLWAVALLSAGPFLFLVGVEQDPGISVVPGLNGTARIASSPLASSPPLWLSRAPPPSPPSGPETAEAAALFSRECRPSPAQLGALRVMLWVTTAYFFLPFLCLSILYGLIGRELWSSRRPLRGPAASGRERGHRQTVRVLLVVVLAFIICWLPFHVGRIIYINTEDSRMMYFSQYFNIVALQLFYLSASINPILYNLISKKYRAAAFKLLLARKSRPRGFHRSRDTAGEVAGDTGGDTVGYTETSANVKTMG
Experimental: as §1
Competitive Radioligand Binding Assay (Motilin Receptor)
• Membranes were prepared from CHO cells stably transfected with the human motilin receptor and utilized at a quantity of 1.5 μg/assay point. [PerkinElmer™ SignalScreen® Product #6110544, PerkinElmer, Inc. Wellesley, MA] • [^125I]-Motilin (PerkinElmer, #NEX-378); final concentration: 0.04-0.06 nM • Motilin (Bachem™, #H-4385, Bachem Bioscience Inc., King of Prussia, PA.); final concentration: 1 μM • Multiscreen® Harvest plates-GF/B (Millipore™, #MAHFB1H60, Billerica, MA) • Deep-well polypropylene titer plate (Beckman Coulter™,#267006, Fullerton, CA) • TopSeal-A™ (PerkinElmer, #6005185, Wellesley, MA) • Bottom seal (Millipore, #MATAH0P00) • MicroScint-0™(PerkinElmer,#6013611, Wellesley, MA) • Binding Buffer: 50 mM Tris-HCl (pH 7.4), 10 mM MgCl2, 1 mM EDTA, 0.1% BSA Assay Volumes: • 150 μL of membranes diluted in binding buffer • 10 μL of compound diluted in binding buffer • 10 μL of radioligand ([^125I]-Motilin) diluted in binding buffer Final Test Concentrations (N=11) for Compounds: • 10, 5, 2, 1, 0.5, 0.2, 0.1, 0.05, 0.02, 0.01, 0.005 μM. Compound Handling:
as §2, with “−20°” for “−80°”, “room temperature” for “rt overnight”, “than” for “then”, “maximum” for “maximal”, “0.5%.” for “0.1%.”
In deep-well plates, diluted cell membranes (1.5 μg/mL) are combined with 10 μL of either binding buffer (total binding, N=5), 1 μM motilin (non-specific binding, N=3) or the appropriate concentration of test compound. The reaction is initiated by addition of 10 μl of [^125I]-motilin (final conc. 0.04-0.06 nM) to each well. Plates are sealed with TopSeal-A™, vortexed gently and incubated at room temperature for 2 hours. The reaction is arrested by filtering samples through pre-soaked (0.3% polyethyleneimine, 2 h) Multiscreen®Harvest plates using a Tomtec® Harvester (Tomtec, Hamden, CT), washed 9 times with 500 μL of cold 50 mM Tris-HCI (pH 7.4), and than plates are air-dried in a fumehood for 30 minutes. A bottom seal is applied to the plates prior to the addition of 25 μL of MicroScint-0 ® to each well. Plates are then sealed with TopSeal-A™ and counted for 30 sec per well on a TopCount® Microplate Scintillation and Luminescence Counter (PerkinElmer, Wellesley, MA) where results are expressed as counts per minute (cpm).
Data are analyzed by GrapbPad™ Prism® (GraphPad Software, San Diego, CA) using a variable slope non-linear regression analysis.
[formula] where total and non-specific binding represent the cpm obtained in the absence or presence of 1 μM motilin, respectively.

| SMILES | Ki [1] [µM] | Ki (human motilin receptor) [µM] |
| --- | --- | --- |
| CCC(C)[C@@H]1NC[C@@H](C)Oc2ccccc2CCCNC(=O)[C@@H](Cc2ccccc2)NC(=O)[C@@H](C)N(C)C1=O (stereo partly drawn) [compound 242] | 0.001 to 0.1 |  |
| CC(C)[C@H]1NC(=O)[C@@H](Cc2cccc(Cl)c2)NCCOc2ccccc2C[C@@H](O)CNC(=O)[C@H](CC2CC2)NC1=O [compound 216] |  | 0.001 to 0.1 |
| CCC(C)[C@@H]1NC[C@H](C)Oc2ccccc2CCCNC(=O)[C@@H](Cc2ccccc2)NC(=O)[C@@H](C)N(C)C1=O (stereo partly drawn) [compound 243] | 0.001 to 0.1 |  |
| CC(C)[C@H]1NC(=O)[C@@H](Cc2cccc(C(F)(F)F)c2)NCCOc2ccccc2C[C@@H](C)CNC(=O)[C@H](CNC(=N)N)NC1=O [compound 204] |  | 0.001 to 0.1 |
| CC(C)[C@H]1NC(=O)[C@@H](Cc2cccc(F)c2)NC[C@@H](C)Oc2ccccc2CCCNC(=O)[C@H](CC2CC2)NC1=O [compound 220] |  | 0.1 to 1 |
| CCC[C@@H]1NC(=O)[C@@H](C(C)C)NC(=O)[C@@H](Cc2ccc(OC)cc2)NC(C)COc2ccccc2CCCNC1=O (stereo partly drawn) [compound 222] |  | 0.001 to 0.1 |
| CC(C)[C@H]1NC(=O)[C@@H](Cc2cccc(F)c2)N[C@@H](C)COc2ccccc2CCCNC(=O)[C@H](CC2CC2)NC1=O [compound 208] |  | 0.001 to 0.1 |
| CCC(C)C1NCCOc2ccccc2C(C)CCNC(=O)C(Cc2cccc(Cl)c2)NC(=O)C2(CCCC2)NC1=O (stereo not drawn) [compound 256] | 0.1 to 1 |  |
| CC1COc2ccccc2CCCNC(=O)C(Cc2ccc(F)cc2)NC(=O)C(C)N(C)C(=O)C(C2CC2)N1 (stereo not drawn) [compound 241] | 0.001 to 0.1 |  |
| CC1COc2ccccc2CCCNC(=O)[C@H](CC2CC2)NC(=O)[C@@H](C(C)C)NC(=O)[C@@H](Cc2cccc(Cl)c2)N1 (stereo partly drawn) [compound 223] |  | 0.001 to 0.1 |
| CC1CNC(C2CC2)C(=O)N(C)C(C)C(=O)NC(Cc2ccc(F)cc2)C(=O)NCCCc2ccccc2O1 (stereo not drawn) [compound 244] | 0.001 to 0.1 |  |
| CCC[C@@H]1NC(=O)[C@@H](C(C)C)NC(=O)[C@@H](Cc2ccc(O)cc2)NC[C@@H](C)Oc2ccccc2CCCNC1=O [compound 227] |  | 0.1 to 1 |
| CC(C)[C@H]1NC(=O)[C@@H](Cc2cccc(F)c2)NCCOc2ccccc2C[C@@H](C)CNC(=O)[C@H](CC2CC2)NC1=O [compound 214] |  | 0.001 to 0.1 |
| CC(C)[C@H]1NC(=O)[C@@H](Cc2cccc(F)c2)N[C@H](C)COc2ccccc2CCCNC(=O)[C@H](CC2CC2)NC1=O [compound 217] |  | 0.1 to 1 |

Results, then the compound that gave them:

| Ki [1] [µM] | Ki (human motilin receptor) [µM] | SMILES |
| --- | --- | --- |
|  | 0.001 to 0.1 | CC(C)[C@H]1NC(=O)[C@@H](Cc2cccc(C(F)(F)F)c2)NCCOc2ccccc2C[C@H](C)CNC(=O)[C@H](CNC(=N)N)NC1=O [compound 201] |
|  | 0.001 to 0.1 | CC1CNC(=O)[C@H](CC2CC2)NC(=O)[C@@H](C(C)C)NC(=O)[C@@H](Cc2cccc(Cl)c2)NCCOc2ccccc2C1 (stereo partly drawn) [compound 209] |
|  | 0.1 to 1 | CC(C)[C@H]1NC(=O)[C@@H](Cc2cccc(F)c2)NCCOc2ccccc2C[C@@H](O)CNC(=O)[C@H](CC2CC2)NC1=O [compound 219] |
|  | 0.1 to 1 | CC(C)[C@H]1NC(=O)[C@@H](Cc2cccc(F)c2)NCCOc2ccccc2C[C@@H](C)CNC(=O)[C@H](CN(C)C)NC1=O [compound 205] |
|  | 0.001 to 0.1 | CC(C)[C@H]1NC(=O)[C@@H](Cc2cccc(Cl)c2)N[C@@H](C)COc2ccccc2CCCNC(=O)[C@H](CNC(=N)N)NC1=O [compound 203] |
| 0.001 to 0.1 |  | CCC(C)C1NCC(C)Oc2ccccc2CCCNC(=O)C(Cc2cccc(Cl)c2)NC(=O)C2(CCCC2)NC1=O (stereo not drawn) [compound 254] |
|  | 0.1 to 1 | CCC[C@@H]1NC(=O)[C@@H](C(C)C)NC(=O)[C@@H](Cc2ccc(O)cc2)NC[C@H](C)Oc2ccccc2CCCNC1=O [compound 226] |
| 0.1 to 1 |  | CC1CNC(=O)C(Cc2ccc(F)cc2)NC(=O)C(C)N(C)C(=O)C(C2CC2)NCCOc2ccccc2C1 (stereo not drawn) [compound 248] |
|  | 0.001 to 0.1 | CC(C)[C@H]1NC(=O)[C@@H](Cc2cccc(Cl)c2)NCCOc2ccccc2C[C@@H](C)CNC(=O)[C@H](CC2CC2)NC1=O [compound 211] |
|  | 0.001 to 0.1 | CC(C)[C@H]1NC(=O)[C@@H](Cc2cccc(Cl)c2)NCCOc2ccccc2C[C@H](O)CNC(=O)[C@H](CC2CC2)NC1=O [compound 215] |
|  | 0.1 to 1 | CC(C)[C@H]1NC(=O)[C@@H](Cc2cccc(F)c2)NCCOc2ccccc2C[C@H](O)CNC(=O)[C@H](CC2CC2)NC1=O [compound 218] |
| 0.001 to 0.1 |  | CCC(C)C1NCCOc2ccccc2CC(C)CNC(=O)C(Cc2cccc(Cl)c2)NC(=O)C2(CCCC2)NC1=O (stereo not drawn) [compound 257] |
|  | 0.001 to 0.1 | CC(C)[C@H]1NC(=O)[C@@H](Cc2cccc(Cl)c2)NCCOc2ccccc2C[C@H](C)CNC(=O)[C@H](CC2CC2)NC1=O [compound 207] |
